Source: US10300065B2, “Method of treating or prevention of atherothrombotic events in patients with history of myocardial infarction” (ASTRAZENECA AB, priority 2015, dated 2019)
Where two headings read alike, the source gives them in different places.

Test system: patients with a history of myocardial infarction
[1] = 60 mg bid (N = 6958), % of patients
[2] = 60 mg bid (N = 6958), listed as ticagrelor
[3] = 60 mg bid, intention-to-treat population

Description: Any erroneously treated patients (e.g., randomized to ticagrelor but actually given placebo) were to be accounted for in the actual treatment group.
The primary efficacy endpoint was the composite of cardiovascular death, myocardial infarction, or stroke. Secondary endpoints were cardiovascular death and all-cause mortality. The analysis of secondary endpoints proceeded in a hierarchical fashion, starting with cardiovascular death and then death from any cause. Additional endpoints listed below were evaluated on an exploratory basis. Exploratory efficacy endpoints included substituting coronary heart disease death for cardiovascular death, and the additional end points of urgent coronary revascularization, unstable angina, and transient ischemic attack. The primary safety endpoint was TIMI major bleeding. Other safety endpoints included intracranial hemorrhage (ICH) and fatal bleeding. […] A central clinical events committee whose members were unaware of the treatment assignments adjudicated all efficacy endpoints and bleeding episodes.
Safety analyses included all randomized patients who received at least one dose of study drug and for whom post-dose data were available. Patients were censored at the first of the pre-specified Common Study End Date, withdrawal of consent, or the last clinical event assessment. Safety was analyzed as on-treatment including all events occurring after first dose and within 7 days after the last dose of study drug. […] Event rates are expressed as Kaplan-Meier estimates of cumulative incidence.

CCCSc1nc(N[C@@H]2C[C@H]2c2ccc(F)c(F)c2)c2nnn([C@@H]3C[C@H](OCCO)[C@@H](O)[C@H]3O)c2n1 [Ticagrelor, (1S,2S,3R,5S)-3-[7-{[(1R,2S)-2-(3,4-difluorophenyl)cyclopropyl]amino}-5-(propylthio)-3H-[1,2,3]-triazolo[4,5-d]pyrimidin-3-yl]-5-(2-hydroxyethoxy)cyclopentane-1,2-diol]
Dyspnea, 3-year event rate (60 mg bid): 15.8%
Fatal bleeding: ARI (%) (60 mg bid): −0.01%
Hypotension (60 mg bid): 0.66 events/100 pt years
ICH: ARI (%) (60 mg bid): 0.14%
ICH: NNH (60 mg bid): 714
TIMI major bleeding: ARI (%) (60 mg bid): 1.24%
TIMI major bleeding: NNH (60 mg bid): 81
frequency of death (including bleeding) (60 mg bid): 4.2%
frequency of death, bleeding events excluded (60 mg bid): 3.9%
median duration of resolved dyspnea adverse events (60 mg bid): 31 days
patients with serum creatinine concentration increased by >50% (60 mg bid): approximately 4%
syncope, patients reporting (60 mg bid): 1.2%
Adverse event leading to death: (%) (60 mg bid (N = 6958)): (2.1) %
Adverse event leading to death: n (60 mg bid (N = 6958)): 149
Adverse event leading to discontinuation of study drug: (%) (60 mg bid (N = 6958)): (16.1) %
Adverse event leading to discontinuation of study drug: n (60 mg bid (N = 6958)): 1117
Any adverse event: (%) (60 mg bid (N = 6958)): (75.7) %
Any adverse event: n (60 mg bid (N = 6958)): 5268
Any serious adverse event: (%) (60 mg bid (N = 6958)): (21.5) %
Any serious adverse event: n (60 mg bid (N = 6958)): 1499
Bleeding leading to study drug discontinuation: 3-year Kaplan-Meier estimate (60 mg bid (N = 6958)): (6.2) %
Bleeding leading to study drug discontinuation: n (60 mg bid (N = 6958)): 355
Bleeding requiring transfusion: 3-year Kaplan-Meier estimate (60 mg bid (N = 6958)): (2.10) %
Bleeding requiring transfusion: n (60 mg bid (N = 6958)): 105
Bradyarrhythmia adverse event: (%) (60 mg bid (N = 6958)): (1.7) %
Bradyarrhythmia adverse event: n (60 mg bid (N = 6958)): 121
Dyspnea AE: (%) (60 mg bid (N = 6958)): (14.17) %
Dyspnea AE: n (60 mg bid (N = 6958)): 986
Dyspnea SAE: (%) (60 mg bid (N = 6958)): (0.3) %
Dyspnea SAE: n (60 mg bid (N = 6958)): 22
Dyspnea leading to study drug discontinuation: (%) (60 mg bid (N = 6958)): (4.3) %
Dyspnea leading to study drug discontinuation: n (60 mg bid (N = 6958)): 296
Fatal Bleeding: 3-year Kaplan-Meier estimate (60 mg bid (N = 6958)): (0.25) %
Fatal Bleeding: n (60 mg bid (N = 6958)): 11
Fatal bleeding or non-fatal intracranial hemorrhage: 3-year Kaplan-Meier estimate (60 mg bid (N = 6958)): (0.63) %
Fatal bleeding or non-fatal intracranial hemorrhage: n (60 mg bid (N = 6958)): 32
Fatal bleeding: (%) patients with event (60 mg bid (N = 6958)): (0.2) %
Fatal bleeding: Events/100 pt yrs (60 mg bid (N = 6958)): 0.08 Events/100 pt yrs
Gout adverse event: (%) (60 mg bid (N = 6958)): (1.4) %
Gout adverse event: n (60 mg bid (N = 6958)): 97
Intracranial Hemorrhage: 3-year Kaplan-Meier estimate (60 mg bid (N = 6958)): (0.61) %
Intracranial Hemorrhage: n (60 mg bid (N = 6958)): 28
Intracranial hemorrhage: (%) patients with event (60 mg bid (N = 6958)): (0.4) %
Intracranial hemorrhage: Events/100 pt yrs (60 mg bid (N = 6958)): 0.19 Events/100 pt yrs
Renal adverse event: (%) (60 mg bid (N = 6958)): (2.5) %
Renal adverse event: n (60 mg bid (N = 6958)): 173
Serious adverse event leading to discontinuation of study drug: (%) (60 mg bid (N = 6958)): (3.7) %
Serious adverse event leading to discontinuation of study drug: n (60 mg bid (N = 6958)): 255
TIMI Major bleeding: 3-year Kaplan-Meier estimate (60 mg bid (N = 6958)): (2.30) %
TIMI Major bleeding: n (60 mg bid (N = 6958)): 115
TIMI Major or Minor: (%) patients with event (60 mg bid (N = 6958)): (2.4) %
TIMI Major or Minor: Events/100 pt yrs (60 mg bid (N = 6958)): 1.15 Events/100 pt yrs
TIMI Major or Minor: n patients with event (60 mg bid (N = 6958)): 168
TIMI Major: (%) patients with event (60 mg bid (N = 6958)): (1.7) %
TIMI Major: Events/100 pt yrs (60 mg bid (N = 6958)): 0.78 Events/100 pt yrs
TIMI Minor bleeding: 3-year Kaplan-Meier estimate (60 mg bid (N = 6958)): (1.18) %
TIMI Minor bleeding: n (60 mg bid (N = 6958)): 55
Non-hemorrhagic adverse reaction: Diarrhea [1]: 3.3%
Non-hemorrhagic adverse reaction: Dizziness [1]: 4.5%
Non-hemorrhagic adverse reaction: Dyspnea [1]: 14.2%
Bleeding leading to study drug discontinuation: 3-year Kaplan-Meier estimate [2]: 6.2%
Bleeding requiring transfusion: 3-year Kaplan-Meier estimate [2]: 2.1%
Dyspnea leading to study drug discontinuation: (%) [2]: 4.3%
Fatal Bleeding: 3-year Kaplan-Meier estimate [2]: 0.3%
Intracranial Hemorrhage: 3-year Kaplan-Meier estimate [2]: 0.6%
TIMI Major bleeding: 3-year Kaplan-Meier estimate [2]: 2.30%
Bleeding leading to study drug discontinuation: HR (60 mg bid vs Placebo): 4.31
Bleeding requiring transfusion: HR (60 mg bid vs Placebo): 3.08
Dyspnea AE: HR (60 mg bid vs Placebo): 2.82
Dyspnea SAE: HR (60 mg bid vs Placebo): 2.91
Dyspnea leading to study drug discontinuation: HR (60 mg bid vs Placebo): 6.35
Fatal Bleeding: HR (60 mg bid vs Placebo): 1.00
Fatal bleeding or non-fatal intracranial hemorrhage: HR (60 mg bid vs Placebo): 1.22
Intracranial Hemorrhage: HR (60 mg bid vs Placebo): 1.33
TIMI Major bleeding: HR (60 mg bid vs Placebo): 2.32
TIMI Minor bleeding: HR (60 mg bid vs Placebo): 3.31
TIMI major bleeding events per year if 10,000 patients were started on treatment versus placebo (60 mg bid, intention-to-treat data): 31
Death: (%) [3]: (4.1) %
Death: n [3]: 289
Non-Cardiovascular death: (%) [3]: (1.6) %
Non-Cardiovascular death: n [3]: 113
proportion of patients who prematurely discontinued treatment (60 mg, over the duration of the trial): 28.7%
Dyspnea, 3-year event rate (90 mg bid): 18.9%
Fatal bleeding: ARI (%) (90 mg bid): −0.15%
Hypotension (90 mg bid): 0.66 events/100 pt years
